{"source": "patent US8871681B2", "about": "“Herbicidal compositions comprising 4-amino-3-chloro-5-fluoro-6-(4-chloro-2-fluoro-3-methoxyphenyl) pyridine-2-carboxylic acid or a derivative thereof and certain sulfonylureas” (Dow AgroSciences LLC, priority 2012, dated 2014)", "key": {"[1]": {"tested_on": "CIRAR (Cirsium arvense, Canada thistle)", "assay": "Post-emergence foliar-applied weed control in cereal crops, greenhouse (Example III)", "assay_type": "in vivo, Cirsium arvense (L.) Scop.", "settings": "Cirsium arvense, post-emergence, foliar-applied, after 20-22 days, read-out: Weed Control CIRAR Obs", "method": "(§1) Seeds of the desired test plant species were planted in Sun Gro MetroMix® 306 planting mixture, which typically has a pH of 6.0 to 6.8 and an organic matter content of about 30 percent, in plastic pots with a surface area of 103.2 square centimeters (cm^2). When required to ensure good germination and healthy plants, a fungicide treatment and/or other chemical or physical treatment was applied. The plants were grown for 7-36 days in a greenhouse with an approximate 14 hour photoperiod which was maintained at about 18° C. during the day and 17° C. during the night. Nutrients and water were added on a regular basis and supplemental lighting was provided with overhead metal halide 1000-Watt lamps as necessary. The plants were employed for testing when they reached the second or third true leaf stage.\n(§2) Treatments consisted of the benzyl ester of 4-amino-3-chloro-5-fluoro-6-(4-chloro-2-fluoro-3-methoxy-phenyl)pyridine-2-carboxylic acid (Compound A), formulated as an SC (suspension concentrate), and a second cereal herbicide alone and in combination.\n(§3) Measured aliquot of benzyl ester of 4-amino-3-chloro-5-fluoro-6-(4-chloro-2-fluoro-3-methoxy-phenyl)pyridine-2-carboxylic acid (Compound A) was placed in 25 milliliter (mL) glass vials and diluted in a volume of 1.25% (v/v) Agri-dex crop oil concentrated to obtain stock solutions. Compound requirements are based upon a 12 mL application volume at a rate of 187 liters per hectare (L/ha). Spray solutions of the second cereal herbicide and experimental compound mixtures were prepared by adding the stock solutions to the appropriate amount of dilution solution to form 12 mL spray solution with active ingredients in two- and three-way combinations. Formulated compounds were applied to the plant material with an overhead Mandel track sprayer equipped with an 8002E nozzle calibrated to deliver 187 L/ha over an application area of 0.503 square meters (m^2) at a spray height of 18 inches (46 cm) above average plant canopy. Control plants were sprayed in the same manner with the solvent blank.\n(§4) The treated plants and control plants were placed in a greenhouse as described above and watered by sub-irrigation to prevent wash-off of the test compounds. After 20-22 days, the condition of the test plants as compared with that of the control plants was determined visually and scored on a scale of 0 to 100 percent where 0 corresponds to no injury and 100 corresponds to complete kill.\n(§5) Colby's equation was used to determine the herbicidal effects expected from the mixtures (Colby, S. R. 1967. Calculation of the synergistic and antagonistic response of herbicide combinations. Weeds 15:20-22.).\n(§6) The following equation was used to calculate the expected activity of mixtures containing two active ingredients, A and B: Expected=A+B−(A×B/100)"}, "[2]": {"tested_on": "IPOHE (Ipomoea hederacea, ivyleaf morningglory)", "assay": "Postemergence foliar-applied weed control, direct seeded rice, greenhouse (Example I)", "assay_type": "in vivo, Ipomoea hederacea Jacq.", "settings": "21 DAA", "description": "Seeds or nutlets of the desired test plant species were planted in a soil matrix prepared by mixing a loam or sandy loam soil (e.g., 28.6 percent silt, 18.8 percent clay, and 52.6 percent sand, with a pH of about 5.8 and an organic matter content of about 1.8 percent) and calcareous grit in an 80 to 20 ratio. The soil matrix was contained in plastic pots with a volume of 1 quart and a surface area of 83.6 square centimeters (cm^2). When required to ensure good germination and healthy plants, a fungicide treatment and/or other chemical or physical treatment was applied. The plants were grown for 8-22 days in a greenhouse with an approximate 14 h photoperiod which was maintained at about 29° C. during the day and 26° C. during the night. Nutrients (Peters Excel® 15-5-15 5-Ca 2-Mg and iron chelate) were applied in the irrigation solution as needed and water was added on a regular basis. Supplemental lighting was provided with overhead metal halide 1000-Watt lamps as necessary. The plants were employed for testing when they reached the first through fourth true leaf stage.\nTreatments consisted of the acid or esters of 4-amino-3-chloro-5-fluoro-6-(4-chloro-2-fluoro-3-methoxy-phenyl)pyridine-2-carboxylic acid (Compound A), each formulated as an SC, and various herbicidal components alone and in combination. Forms of compound A were applied on an acid equivalent basis.\nOther herbicidal components were applied on an active ingredient basis and included acetolactate synthase (ALS)-inhibiting herbicides (sulfonylurea chemical class) azimsulfuron formulated as Gulliver®, bensulfuron-methyl formulated as Londax® 60DF, cyclosulfamuron (technical material), ethoxysulfuron formulated as Sunrice® 15 WDG, flazasulfuron formulated as Katana®, flucetosulfuron formulated as Sukedachi® 1KG G, foramsulfuron formulated as Option®, imazosulfuron formulated as Brazzos® WG, iodosulfuron-methyl-sodium formulated as Hussar®, metsulfuron-methyl formulated as Lorate®, nicosulfuron formulated as Accent®, orthosulfamuron formulated as Strada® WG, primisulfuron-methyl (technical material), propyrisulfuron formulated as Zeta One®, rimsulfuron formulated as Matrix® WG, sulfometuron-methyl formulated as Oust®, and trifloxysulfuron-sodium formulated as Monument® 75WG.\nTreatment requirements were calculated based upon the rates being tested, the concentration of active ingredient or acid equivalent in the formulation, and a 12 mL application volume at a rate of 187 L/ha.\nFor treatments comprised of formulated compounds, measured amounts of compounds were placed individually in 25 mL glass vials and diluted in a volume of 1.25% (v/v) Agri-Dex® crop oil concentrated to obtain 12× stock solutions. […] Application solutions were prepared by adding an appropriate amount of each stock solution (e.g., 1 mL) and diluted to the appropriate final concentrations with the addition of 10 mL of an aqueous mixture of 1.25% (v/v) crop oil concentrate so that the final spray solutions contained 1.25+/−0.05% (v/v) Agrcrop oil concentrate.\nFor treatments comprised of formulated and technical compounds, weighed amounts of the technical materials were placed individually in 25 mL glass vials and dissolved in a volume of 97:3 v/v acetone/DMSO to obtain 12× stock solutions, and measured amounts of the formulated compounds were placed individually in 25 mL glass vials and diluted in a volume of 1.25% (v/v) crop oil concentrate to obtain 12× stock solutions. […] Application solutions were prepared by adding an appropriate amount of each stock solution (e.g., 1 mL) and diluted to the appropriate final concentrations with the addition of an appropriate amount of an aqueous mixture of 1.5% (v/v) crop oil concentrate so that the final spray solutions contained 1.25% (v/v) crop oil concentrate. […]"}, "[3]": {"tested_on": "VIOTR (Viola tricolor, wild pansy)", "assay": "Post-emergence foliar-applied weed control in cereal crops, greenhouse (Example III)", "assay_type": "in vivo, Viola tricolor (L.)", "method": "as §1, §2, §3, §4, §5, §6"}, "[4]": {"tested_on": "MATCH (Chamomilla chamomilla, scented mayweed)", "assay": "Post-emergence foliar-applied weed control in cereal crops, greenhouse (Example III)", "assay_type": "in vivo, Chamomilla chamomilla (L.) Rydb.", "method": "as §1, §2, §3, §4, §5, §6"}, "[5]": {"tested_on": "VERPE (Veronica persica, bird's-eye speedwell)", "assay": "Post-emergence foliar-applied weed control in cereal crops, greenhouse (Example III)", "assay_type": "in vivo, Veronica persica Poir.", "settings": "Table 57, after 20-22 days, 8.75 gai/ha Sulfosulfuron alone", "method": "as §1, §2, §3, §4, §5, §6"}, "[6]": {"tested_on": "LAMPU (Lamium purpureum, purple deadnettle)", "assay": "Post-emergence foliar-applied weed control in cereal crops, greenhouse (Example III)", "assay_type": "in vivo, Lamium purpureum (L.)", "settings": "Table 57, after 20-22 days, 8.75 gai/ha Sulfosulfuron alone", "method": "as §1, §2, §3, §4, §5, §6"}, "[7]": {"tested_on": "CASOB (Cassia obtusifolia, sicklepod)", "assay": "Post-emergence herbicidal activity of mixtures in forage crops, greenhouse (Example IV)", "assay_type": "in vivo, Cassia obtusifolia L.", "settings": "Table 58 (forage); foliar-applied; after approximately 21 days; 1.1 gai/ha alone", "method": "as §1, with “Seeds or root cuttings” for “Seeds”, “126.6” for “103.2”, “14-60” for “7-36”, “approximately 28°” for “about 18°”, “24°” for “17°”, “BBCH13 to BBCH23” for “second or third true”\n(§7) Treatments consisted of the benzyl ester of 4-amino-3-chloro-5-fluoro-6-(4-chloro-2-fluoro-3-methoxy-phenyl)pyridine-2-carboxylic acid (Compound A), formulated as a SC, and a second herbicide alone and in combination.\n(§8) A measured aliquot of Compound A was placed in 25 milliliter (mL) glass vial and diluted in a volume of 1.25% (v/v) Agri-dex crop oil concentrated to obtain stock solutions. Compound requirements are based upon a 12 mL application volume at a rate of 187 liters per hectare (L/ha). Spray solutions of the second cereal herbicide and experimental compound mixtures were prepared by adding the stock solutions to the appropriate amount of dilution solution to form 12 mL spray solution with active ingredients in two- and three-way combinations. […]\n(§9) The treated plants and control plants were placed in a greenhouse as described above and watered by sub-irrigation to prevent wash-off of the test compounds. After approximately 21 days, the condition of the test plants, as compared with that of the control plants, was determined visually and scored on a scale of 0 to 100 percent where 0 corresponds to no injury and 100 corresponds to complete kill. […]"}, "[8]": {"tested_on": "POROL (Portulaca oleracea, portulaca)", "assay": "Post-emergence herbicidal activity of mixtures in forage crops, greenhouse (Example IV)", "assay_type": "in vivo, Portulaca oleracea L.", "settings": "Table 58 (forage); foliar-applied; after approximately 21 days; 1.1 gai/ha alone", "method": "as §1, with “Seeds or root cuttings” for “Seeds”, “126.6” for “103.2”, “14-60” for “7-36”, “approximately 28°” for “about 18°”, “24°” for “17°”, “BBCH13 to BBCH23” for “second or third true”\nas §7, §8, §9"}, "[9]": {"tested_on": "SIDSP (Sida spinosa, prickly sida)", "assay": "Post-emergence herbicidal activity of mixtures in forage crops, greenhouse (Example IV)", "assay_type": "in vivo, Sida spinosa L.", "settings": "Table 58 (forage); foliar-applied; after approximately 21 days; 1.1 gai/ha alone", "method": "as §1, with “Seeds or root cuttings” for “Seeds”, “126.6” for “103.2”, “14-60” for “7-36”, “approximately 28°” for “about 18°”, “24°” for “17°”, “BBCH13 to BBCH23” for “second or third true”\nas §7, §8, §9"}, "[10]": {"settings": "Table 54, after 20-22 days, 2.5 gai/ha alone"}}}
{"molecule": "COC(=O)c1ccc(I)cc1S(=O)(=O)[N-]C(=O)Nc1nc(C)nc(OC)n1.[Na+]", "note": "[Iodosulfuron-methyl sodium, methyl 4-iodo-2-[[[[(4-methoxy-6-methyl-1,3,5-triazin-2-yl)amino]carbonyl]amino]sulfonyl]benzoate, sodium salt, reference compound]", "values": [{"measurement": "pest or weed control at 2.5 g/ha", "setting": "[1]; Table 54, 2.5 gai/ha alone", "value": 60, "unit": "%"}, {"measurement": "Visual Weed Control (%) Obs", "setting": "[2]; 2.5 gai/ha", "value": 90, "unit": "%"}, {"measurement": "Visual Weed Control (%) Obs", "setting": "[2]; 5 gai/ha", "value": 95, "unit": "%"}, {"measurement": "Weed Control VIOTR Obs", "setting": "[3]; [10]", "value": 82, "unit": "%"}, {"measurement": "Weed Control MATCH Obs", "setting": "[4]; [10]", "value": 94, "unit": "%"}]}
{"molecule": "CCS(=O)(=O)c1nc2ccccn2c1S(=O)(=O)NC(=O)Nc1nc(OC)cc(OC)n1", "note": "[Sulfosulfuron]", "values": [{"measurement": "pest or weed control at 8.75 g/ha", "setting": "[1]; Table 57, 8.75 gai/ha Sulfosulfuron alone", "value": 70, "unit": "%"}, {"measurement": "Weed Control VERPE Obs", "setting": "[5]", "value": 35, "unit": "%"}, {"measurement": "Weed Control MATCH Obs", "setting": "[4]; Table 57, after 20-22 days, 8.75 gai/ha Sulfosulfuron alone", "value": 95, "unit": "%"}, {"measurement": "Weed Control LAMPU Obs", "setting": "[6]", "value": 5, "unit": "%"}]}
{"molecule": "COc1nc(C)nc(NC(=O)NS(=O)(=O)c2ccccc2Cl)n1", "note": "[Chlorsulfuron]", "values": [{"measurement": "pest or weed control at 2.2 g/ha", "setting": "[1]; Table 52, 2.2 gai/ha alone", "value": 78, "unit": "%"}, {"measurement": "Weed Control VIOTR Obs", "setting": "[3]; Table 52, after 20-22 days, 2.2 gai/ha alone", "value": 70, "unit": "%"}]}
{"molecule": "COC(=O)c1ccccc1S(=O)(=O)NC(=O)Nc1nc(C)nc(OC)n1", "note": "[Metsulfuron ME]", "values": [{"measurement": "Weed Control CASOB Obs", "setting": "[7]", "value": 8, "unit": "%"}, {"measurement": "Weed Control POROL Obs", "setting": "[8]", "value": 80, "unit": "%"}, {"measurement": "Weed Control SIDSP Obs", "setting": "[9]", "value": 52, "unit": "%"}]}
